Measured values as given in article PMC5404560, “Towards Selective Mycobacterial ClpP1P2 Inhibitors with Reduced Activity against the Human Proteasome” (Antimicrobial Agents and Chemotherapy, 2017).
In brackets after ≈: the same amount, converted by molar mass. Read-outs that look alike come from different tables or passages of the source. Marks after values point to notes of the source that are not given here.

Assays:
[1] = system: M. smegmatis ΔprcAB; type: cell-based
[2] = system: M. tuberculosis H37Rv; test: microbe, parasite or virus in culture; type: cell-based
[3] = system: M. tuberculosis; test: Bactericidal activity (MBC99.9); type: cell-based; settings: Mycobacterium tuberculosis; concentration required to kill 99.9% of the bacterial population
[4] = system: Mycobacterium bovis BCG; test: microbe, parasite or virus in culture; type: cell-based; settings: Mycobacterium tuberculosis variant bovis BCG, read-out: MIC50 for Mycobacterium bovis BCG
[5] = MTS cytotoxicity assay, Vero; type: cell-based; settings: African green monkey; MTS assay; read-out: GI50, Vero cells
Experimental: (§1) The MTS (Promega) reduction assay was used according to manufacturer's guidelines to assess Vero (ATCC […]) and HepG2 (ATCC HB-8065) cell viability. […] Carbonyl cyanide m-chlorophenylhydrazone (CCCP) was used as a cytotoxic positive control. Cytotoxicity was determined twice in independent experiments.

[6] = system: Vero cells; test: MTS cytotoxicity assay, Vero; type: cell-based; settings: fold higher
Experimental: as §1

[7] = Log D (octanol/PBS); type: physicochemical; settings: pH 7.4, read-out: Log D (measured at pH 7.4)
Experimental: (§2) A parallel artificial-membrane permeability assay (PAMPA) and mouse liver microsome (MLM), human liver microsome (HLM), aqueous solubility, Log D, protein binding, and cytochrome P450 2D6 and 3A4 assays were carried out at Piramal Pharma Solutions.

[8] = Thermodynamic aqueous solubility; type: physicochemical; settings: thermodynamic from solid
Experimental: as §2

[9] = Parallel artificial-membrane permeability assay (PAMPA); type: in vitro ADME; settings: read-out: PAMPA Pe
Experimental: as §2

[10] = Plasma protein binding, mouse; type: in vitro ADME; settings: bound, read-out: Plasma protein binding in mice (%) (converted)
Experimental: as §2

[11] = Plasma protein binding, human; type: in vitro ADME; settings: bound, read-out: Plasma protein binding in humans (%) (converted)
Experimental: as §2

[12] = Mouse liver microsome stability; type: in vitro ADME; settings: liver microsomes, read-out: MLM t1/2
Experimental: as §2

[13] = biological target: T1, CYP450 3A4 (Homo sapiens, UniProt P08684); test: Recombinant cytochrome P450 enzyme assay, 3A4; type: in vitro ADME; settings: highest concentration tested 10 μM
T1 construct: Piramal Pharma Solutions (contract laboratory)
Experimental: as §2

[14] = biological target: T2, CYP450 2D6 (Homo sapiens, UniProt P10635); test: Recombinant cytochrome P450 enzyme assay, 2D6; type: in vitro ADME; settings: highest concentration tested 10 μM
T2 construct: Piramal Pharma Solutions (contract laboratory)
Experimental: as §2

[15] = Intravenous/oral pharmacokinetics and tissue distribution in mice; type: in vivo; settings: for Vd: 10 mg/kg
Experimental: Female ICR mice (aged ∼6 to ∼8 weeks; 3 animals per time point) were used for all studies. Studies were performed as per approved internal protocols for animal care and use. Doses were administered as clear solutions in 50% polyethylene glycol 400 (PEG400) plus […] (D5W). Animals were sacrificed by overdose of CO2, and blood was collected through cardiac puncture at 5 min (10 min per os [p.o.]), 30 min, and 1, 2, 4, 8, 16, and 24 h after administration in tubes containing K3 EDTA as an anticoagulant. The samples were centrifuged, and the plasma was separated and stored at −70°C until analysis. Plasma samples were processed and analyzed by LC-tandem MS. Pharmacokinetic parameters were estimated by noncompartmental methods using WinNonlin (version 5.2; Pharsight, CA).

[16] = system: panel of 62 proteases; test: Protease selectivity panel, overall; type: biochemical
Experimental: (§3) Protease panel testing was carried out by Reaction Biology Corporation.

[17] = biological target: Chymase (Homo sapiens, UniProt P23946); test: Protease panel: Chymase; type: biochemical; settings: Table 6; 10-dose response, top 10 μM
Experimental: as §3

[18] = biological target: Kallikrein 1 (Homo sapiens, UniProt P06870); test: Protease panel: Kallikrein 1; type: biochemical; settings: Table 6; 10-dose response, top 10 μM
Experimental: as §3

[19] = biological target: Kallikrein 7 (Homo sapiens, UniProt P49862); test: Protease panel: Kallikrein 7; type: biochemical; settings: Table 6; 10-dose response, top 10 μM
Experimental: as §3

[20] = biological target: T3, Plasma kallikrein (Homo sapiens, UniProt P03952); test: Protease panel: Plasma kallikrein; type: biochemical; settings: Table 6; 10-dose response, top 10 μM
T3 construct: Reaction Biology Corporation (contract testing)
Experimental: as §3

[21] = biological target: T4, Proteinase K (Parengyodontium album, UniProt P06873); test: Protease panel: Proteinase K; type: biochemical
T4 construct: Reaction Biology Corporation (contract testing)
Experimental: as §3

[22] = biological target: ClpP1P2 (Mycolicibacterium smegmatis, UniProt A0R197+A0R198); test: ClpP1P2 inhibition whole-cell RFP-SsrA reporter assay
[23] = biological target: HepG2 proteasome (Homo sapiens, UniProt P20618+P28074); test: Cell-based proteasome CT-like peptidase inhibition assay (Proteasome-Glo)
Experimental: A cell-based CT-like peptidase assay was performed using the Proteasome-Glo cell-based assay reagent (Promega) according to the manufacturer's guidelines. Briefly, HepG2 cells (10^4 cells/well) were treated with the compounds indicated in the figures for 2 h, followed by incubation with the luminescent substrate for 10 min. Luminescence was detected with a Tecan M200 Pro plate reader.

Sequence of ClpP1P2 (A0R198 4-203): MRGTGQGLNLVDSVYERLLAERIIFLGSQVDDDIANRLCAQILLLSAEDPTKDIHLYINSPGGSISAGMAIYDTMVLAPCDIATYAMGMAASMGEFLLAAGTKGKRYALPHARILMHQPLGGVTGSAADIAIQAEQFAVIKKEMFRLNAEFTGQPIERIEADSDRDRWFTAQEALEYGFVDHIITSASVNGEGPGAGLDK
Sequence of ClpP1P2 (A0R197 17-218): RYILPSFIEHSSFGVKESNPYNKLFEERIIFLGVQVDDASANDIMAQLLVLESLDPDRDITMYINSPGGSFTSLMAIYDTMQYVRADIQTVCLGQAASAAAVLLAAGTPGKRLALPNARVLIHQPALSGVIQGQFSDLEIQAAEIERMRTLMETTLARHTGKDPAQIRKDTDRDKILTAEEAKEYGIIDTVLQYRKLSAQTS
T4 sequence (P06873 106-384): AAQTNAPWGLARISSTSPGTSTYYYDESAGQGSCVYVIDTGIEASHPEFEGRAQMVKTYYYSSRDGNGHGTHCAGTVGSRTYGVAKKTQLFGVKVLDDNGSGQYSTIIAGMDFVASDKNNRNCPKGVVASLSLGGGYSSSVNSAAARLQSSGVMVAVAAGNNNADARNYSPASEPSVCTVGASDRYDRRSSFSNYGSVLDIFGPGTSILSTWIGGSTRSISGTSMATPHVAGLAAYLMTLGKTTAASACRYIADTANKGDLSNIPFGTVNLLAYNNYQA
Sequence of Chymase (P23946 22-247, species assumed): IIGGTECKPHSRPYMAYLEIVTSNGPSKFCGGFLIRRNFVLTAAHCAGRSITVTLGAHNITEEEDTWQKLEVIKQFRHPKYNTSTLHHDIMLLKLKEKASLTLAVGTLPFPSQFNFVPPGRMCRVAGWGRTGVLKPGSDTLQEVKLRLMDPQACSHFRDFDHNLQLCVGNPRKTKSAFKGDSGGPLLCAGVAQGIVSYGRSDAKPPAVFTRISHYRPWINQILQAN
Sequence of Kallikrein 1 (P06870 25-262, species assumed): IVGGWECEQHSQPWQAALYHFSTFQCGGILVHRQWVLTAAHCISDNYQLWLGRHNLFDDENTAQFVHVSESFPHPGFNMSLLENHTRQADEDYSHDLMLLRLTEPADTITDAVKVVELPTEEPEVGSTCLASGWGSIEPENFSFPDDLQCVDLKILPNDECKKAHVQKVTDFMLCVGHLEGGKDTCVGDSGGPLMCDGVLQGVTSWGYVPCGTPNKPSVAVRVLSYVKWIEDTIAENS
Sequence of Kallikrein 7 (P49862 30-253, species assumed): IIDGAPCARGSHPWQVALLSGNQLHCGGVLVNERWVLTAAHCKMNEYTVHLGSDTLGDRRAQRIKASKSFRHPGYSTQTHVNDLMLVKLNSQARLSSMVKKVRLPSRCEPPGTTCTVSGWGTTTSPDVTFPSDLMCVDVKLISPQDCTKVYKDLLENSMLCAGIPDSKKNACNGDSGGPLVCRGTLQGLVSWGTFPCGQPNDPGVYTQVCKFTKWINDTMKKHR
T3 sequence (P03952 20-638, species assumed): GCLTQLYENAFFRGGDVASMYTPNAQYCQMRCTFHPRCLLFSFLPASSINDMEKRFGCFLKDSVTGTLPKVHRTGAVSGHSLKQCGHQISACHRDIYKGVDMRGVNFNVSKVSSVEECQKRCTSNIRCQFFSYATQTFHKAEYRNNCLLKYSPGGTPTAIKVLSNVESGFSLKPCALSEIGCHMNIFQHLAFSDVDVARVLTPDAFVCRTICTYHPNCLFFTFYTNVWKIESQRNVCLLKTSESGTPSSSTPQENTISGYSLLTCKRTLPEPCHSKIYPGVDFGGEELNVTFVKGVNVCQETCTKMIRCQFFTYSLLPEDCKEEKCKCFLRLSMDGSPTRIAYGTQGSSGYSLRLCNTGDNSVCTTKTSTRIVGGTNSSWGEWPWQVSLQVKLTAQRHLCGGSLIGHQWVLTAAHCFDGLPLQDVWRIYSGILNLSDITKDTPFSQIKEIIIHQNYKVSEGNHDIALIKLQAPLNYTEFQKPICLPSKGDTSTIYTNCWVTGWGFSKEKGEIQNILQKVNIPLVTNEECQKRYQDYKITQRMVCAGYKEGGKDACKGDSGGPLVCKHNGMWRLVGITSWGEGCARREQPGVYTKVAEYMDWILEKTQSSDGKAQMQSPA
T2 sequence (P10635 whole entry): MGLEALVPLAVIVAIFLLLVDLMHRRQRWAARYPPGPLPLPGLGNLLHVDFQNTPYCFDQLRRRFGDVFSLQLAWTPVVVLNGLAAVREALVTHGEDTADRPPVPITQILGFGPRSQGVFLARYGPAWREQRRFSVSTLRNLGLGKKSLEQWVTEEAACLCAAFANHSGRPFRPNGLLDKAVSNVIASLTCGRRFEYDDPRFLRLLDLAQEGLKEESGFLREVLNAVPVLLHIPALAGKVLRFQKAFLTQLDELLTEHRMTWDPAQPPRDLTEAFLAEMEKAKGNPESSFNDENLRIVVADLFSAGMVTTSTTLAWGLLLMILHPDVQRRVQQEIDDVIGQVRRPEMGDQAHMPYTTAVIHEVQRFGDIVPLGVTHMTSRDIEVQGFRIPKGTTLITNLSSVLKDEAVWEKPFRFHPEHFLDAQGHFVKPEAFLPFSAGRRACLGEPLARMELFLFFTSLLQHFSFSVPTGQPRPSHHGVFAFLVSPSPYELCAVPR
T1 sequence (P08684 whole entry): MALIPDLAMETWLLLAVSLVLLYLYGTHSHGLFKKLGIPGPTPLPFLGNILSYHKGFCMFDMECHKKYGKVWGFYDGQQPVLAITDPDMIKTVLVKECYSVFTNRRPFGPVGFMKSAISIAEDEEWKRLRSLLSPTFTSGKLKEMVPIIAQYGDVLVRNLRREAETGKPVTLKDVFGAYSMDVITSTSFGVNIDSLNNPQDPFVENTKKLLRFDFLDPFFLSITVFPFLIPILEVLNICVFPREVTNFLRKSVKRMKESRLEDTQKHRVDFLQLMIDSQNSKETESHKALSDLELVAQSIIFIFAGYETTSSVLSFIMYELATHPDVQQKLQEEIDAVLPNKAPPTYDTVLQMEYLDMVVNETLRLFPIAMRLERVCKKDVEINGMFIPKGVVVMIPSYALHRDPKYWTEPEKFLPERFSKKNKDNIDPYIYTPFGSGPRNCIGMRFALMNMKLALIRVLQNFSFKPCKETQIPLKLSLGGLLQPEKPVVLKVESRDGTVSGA

O=C(N[C@@H](Cc1ccccn1)C(=O)N[C@@H](CCc1ccccc1)B(O)O)c1cnccn1 [Compound 58, ((R)-3-phenyl-1-((S)-2-(pyrazine-2-carboxamido)-3-(pyridin-2-yl)propanamido)propyl)boronic acid]
M. smegmatis ΔprcAB MIC50 ([1]; 24 h exposure, OD600, concentration inhibiting 50% of growth): 2.7 ± 0.5 µM
improvement of bacterial-growth inhibition compared to compound 1 ([1]; M. smegmatis ΔprcAB): over 2 fold
MIC50 (μM) against M. tuberculosis H37Rv ([2]; 5 days): 2.5 ± 1.3^b μM
MIC90 (μM) against M. tuberculosis H37Rv ([2]; 5 days): 6 ± 2.8 µM (≈ 2.6 µg/mL)
MIC90 concentration relative to MIC50 (fold higher) ([2]; H37Rv): < 3 fold
MIC50 ([2]; Mycobacterium tuberculosis, H37RV, 120 h, 5 days, read-out: MIC50 (μM) against M. tuberculosis H37Rv): 2.5 µM
MIC90 ([2]; Mycobacterium tuberculosis, H37RV, 120 h, 5 days, read-out: MIC90 (μM) against M. tuberculosis H37Rv): 6 µM (≈ 2.6 µg/mL)
MIC50 ([2]; Mycobacterium tuberculosis, H37RV, read-out: MIC50-TB): 1.08 µg/mL
MBC [3]: 50 µM (≈ 21.7 µg/mL)
MIC50 [4]: 1.5 µM (≈ 0.65 µg/mL)
GI50 [5]: 500 µM
GI50 relative to M. tuberculosis growth-inhibitory potency, Vero [6]: 200 fold
logD [7]: 2.96
solubility ([8]; aqueous medium at pH 7.4, aqueous buffer, pH 7.4, text, read-out: aqueous solubility): > 400 µg/mL
solubility ([8]; aqueous solution at pH 4, aqueous buffer, thermodynamic, pH 4, read-out: Aq solubility (μg/ml) at pH 4): 422 µg/mL (≈ 973 µM)
solubility ([8]; aqueous solution at pH 7.4, aqueous buffer, thermodynamic, pH 7.4, read-out: Aq solubility (μg/ml) at pH 7.4): 450 µg/mL (≈ 1040 µM)
Papp [9]: 3.5 ×10⁻⁶ cm/s
fraction unbound [10]: 0.0954
fraction unbound [11]: 0.109
half-life [12]: ~8 min
IC50 [13]: > 10 µM
IC50 [14]: > 10 µM
abnormal clinical signs for up to 24 h after injection ([15]; 10 mg/kg i.v.): No abnormal clinical signs were observed
acute side effects during tail vein injection ([15]; 10 mg/kg i.v.): No acute side effects were observed
time concentrations remained above anti-M. tuberculosis MIC50 ([15]; 10 mg/kg i.v.): approximately 4 h
maximum concentration ([15]; 10 mg/kg i.v., plasma): 32.7 µM
AUC0–t(last) in brain ([15]; 100 mg/kg p.o., brain): 286 ng·h/g
AUC0–t(last) in lung ([15]; 100 mg/kg p.o., lung): 16,253 ng · h/g
C0 ([15]; female, ICR, mouse, iv, 10 mg/kg i.v., plasma, read-out: C0 (maximum concentration)): 14200 ng/mL
AUC(0-inf) ([15]; female, ICR, mouse, plasma, iv, 10 mg/kg i.v., read-out: AUC0-inf): 21100 ng·h/mL
AUC(0-t) ([15]; female, ICR, mouse, plasma, iv, 10 mg/kg i.v., read-out: AUC0-t(last)): 20800 ng·h/mL
clearance ([15]; female, ICR, mouse, plasma, iv, 10 mg/kg i.v., read-out: CL (systemic plasma clearance) (converted)): 8.33 mL/min/kg
half-life ([15]; female, ICR, mouse, plasma, iv, 10 mg/kg i.v., read-out: T½ (elimination half-life) (converted)): 222 min
Vd ([15]; female, ICR, mouse, plasma, iv, 10 mg/kg i.v., read-out: Vss): 2.1 L/kg
Vd ([15]; female, ICR, mouse, plasma, iv, 10 mg/kg i.v., read-out: Vz): 2.5 L/kg
Tmax ([15]; female, ICR, mouse, plasma, lung, brain, po, 100 mg/kg p.o., read-out: Tmax (converted)): 10 min
bioavailability ([15]; female, ICR, mouse, plasma, oral, 10 mg/kg p.o. vs 10 mg/kg i.v., read-out: F (absolute oral bioavailability)): 14%
AUC(0-inf) ([15]; female, ICR, mouse, plasma, po, 10 mg/kg p.o., read-out: AUC0-inf): 2870 ng·h/mL
AUC(0-t) ([15]; female, ICR, mouse, plasma, po, 10 mg/kg p.o., read-out: AUC0-t(last)): 2840 ng·h/mL
Tmax ([15]; female, ICR, mouse, plasma, po, 10 mg/kg p.o., read-out: Tmax (converted)): 30 min
half-life ([15]; female, ICR, mouse, plasma, po, 10 mg/kg p.o., read-out: T½ (converted)): 234 min
Cmax ([15]; female, ICR, mouse, po, 10 mg/kg p.o., plasma, read-out: Cmax): 798 ng/mL
AUC(0-inf) ([15]; female, ICR, mouse, po, 100 mg/kg p.o., brain, Fig. 10B, read-out: AUC0-inf, Brain): 378 ng·h/mL
AUC(0-t) ([15]; female, ICR, mouse, po, 100 mg/kg p.o., brain, Fig. 10B, read-out: AUC0-t(last), Brain): 286 ng·h/mL
Cmax ([15]; female, ICR, mouse, po, 100 mg/kg p.o., brain, read-out: Cmax in brain): 93 ng/g
Tmax ([15]; female, ICR, mouse, po, 100 mg/kg p.o., brain, read-out: Tmax, Brain): 12 min
half-life ([15]; female, ICR, mouse, po, 100 mg/kg p.o., brain, read-out: T½, Brain (converted)): 12 min
AUC(0-inf) ([15]; female, ICR, mouse, po, 100 mg/kg p.o., lung, Fig. 10B, read-out: AUC0-inf, Lung): 17000 ng·h/mL
AUC(0-t) ([15]; female, ICR, mouse, po, 100 mg/kg p.o., lung, Fig. 10B, read-out: AUC0-t(last), Lung): 16300 ng·h/mL
Cmax ([15]; female, ICR, mouse, po, 100 mg/kg p.o., lung, read-out: Cmax in lung): 3370 ng/g
Tmax ([15]; female, ICR, mouse, po, 100 mg/kg p.o., lung, read-out: Tmax, Lung): 12 min
half-life ([15]; female, ICR, mouse, po, 100 mg/kg p.o., lung, read-out: T½, Lung (converted)): 18 min
AUC(0-inf) ([15]; female, ICR, mouse, po, 100 mg/kg p.o., plasma, read-out: AUC0-inf, Plasma): 23600 ng·h/mL
AUC(0-t) ([15]; female, ICR, mouse, po, 100 mg/kg p.o., plasma, read-out: AUC0-t(last), Plasma): 22800 ng·h/mL
Cmax ([15]; female, ICR, mouse, po, 100 mg/kg p.o., plasma, read-out: Cmax, Plasma): 6910 ng/mL
Tmax ([15]; female, ICR, mouse, po, 100 mg/kg p.o., plasma, read-out: Tmax, Plasma): 12 min
half-life ([15]; female, ICR, mouse, po, 100 mg/kg p.o., plasma, read-out: T½, Plasma (converted)): 12 min
Dose linearity ([15]; p.o., plasma Cmax and AUC0–inf at 10 and 100 mg/kg): very good
share of panel of 62 proteases inhibited with a submicromolar IC50 ([16]; 2/62): 3%
share of panel of 62 proteases inhibited with an IC50 between 1 to 10 μM ([16]; 5/62): 8%
share of panel of 62 proteases against which active (<10 μM) ([16]; top concentration tested 10 μM): 11%
IC50 [17]: 5.75 µM
IC50 [18]: 6.03 µM
IC50 [19]: 9.31 µM
IC50 [20]: 4.4 µM
IC50 ([21]; Table 6, 10-dose response, top 10 μM): 0.35 µM
IC50 ([21]; supplement panel table, test and control compound): 0.352 µM
IC50 ([22]; M. smegmatis ΔprcAB IC50 (μM) for ClpP1P2, whole-cell RFP-SsrA reporter, 3 h incubation): 1.5 ± 0.5 µM
improvement of ClpP1P2 potency compared to compound 1 ([22]; M. smegmatis ΔprcAB reporter): 4 fold
IC50 [23]: 0.367 ± 0.103 µM
